# According to patent US20200396997A1, “A STABLE AGROCHEMICAL COMPOSITION” (priority 2018, published 2020):
# Assays:
# Format in all cases: physicochemical
# [1] = Comparative study of compositions with end-capped vs non-end capped EO/PO block polymer (7 and 14 days AHS)
# Description: Comparative Study of the Compositions with EO/PO Block Copolymer End-Capped with Methyl Group and Non-End Capped EO/PO Block Polymer
# The composition described in Example-1 (having EO/PO block copolymer end-capped with methyl group) prepared according to the process disclosed in the present invention was tested against the composition described in Example-3 (having non-alkyl end-capped EO/PO block copolymer). The objective of study was to determine the effect EO/PO block copolymer end-capped with alkyl group in preventing degradation of active ingredients and to impart overall stability to the composition.
# [2] = Stability of active ingredients in real time study (19 months ambient); settings: composition of Example-2
# Text: Stability of Active Ingredients Observed in Real Time Study
# The composition prepared in Example-2 according to the process disclosed in the present invention is kept for real time study to observe degradation pattern of active ingredients. The composition was kept for 19 months in ambient conditions. Acetamiprid and Acephate found to be very stable with 3.5% and 2.31% degradation respectively. This resulted into an overall stable agrochemical composition.
# [3] = Stability study of active ingredients in various storage conditions (unpacked / water soluble pouch); settings: composition of Example-1; for % Degradation: 14 days AHS at 54° C. vs ambient; for 14 D AHS / AMB: content of active; for 14 D AHS: 14 days AHS at 54° C.; for AMB: ambient
# Description: Stability Study of Active Ingredients in Various Storage Conditions
# The composition described in Example-1 prepared according to the process disclosed in the present invention was tested to determine the stability of active ingredients when subjected to various storage conditions. Degradation of active ingredients was calculated at ambient conditions and in 14 days AHS at 54° C. for the composition kept as unpacked and as packed in water soluble pouch. Acetamiprid and Acephate both found to be stable in unpacked as well as when packed in the water soluble pouch.
# [4] = Study of chloronicotinyl compositions with and without EO/PO block copolymer end-capped with methyl group (7 and 14 days AHS)
# Description: Study of Chloronicotinyl Compositions Having EO/PO Block Copolymer End-Capped with Methyl Group and without Having EO/PO Block Polymer End-Capped with Methyl Group
# The composition described in Example-4 (having EO/PO block copolymer end-capped with methyl group) prepared according to the process disclosed in the present invention was tested against the composition described in Example-7 (having no EO/PO block copolymer). The objective of study was to determine the effect of EO/PO block copolymer end-capped with alkyl group on chloronicotinyl compounds in preventing degradation of the compositions as well as the overall stability to the compositions.
# [5] = 19 months in ambient conditions
Compound,"Degradation observed ([1]; 7 days AHS, active in composition comprising EO/PO block copolymer end-capped with methyl group (Example-1))","Degradation observed ([1]; 7 days AHS, active in composition comprising non end-capped EO/PO block copolymer (Example-3))","Degradation observed ([1]; 14 days AHS, active in composition comprising EO/PO block copolymer end-capped with methyl group (Example-1))","Degradation observed ([1]; 14 days AHS, active in composition comprising non end-capped EO/PO block copolymer (Example-3))",degradation ([2]; 19 Month Real Time),"degradation [2, 5]","stability of active (in words) [2, 5]","19 Month Real Time ([2]; content of active, 19 months in ambient conditions)","Ambient ([2]; content of active, start)",% Degradation ([3]; Packed in Water Soluble Pouch),% Degradation ([3]; Without Packing),stability of active (in words) ([3]; unpacked as well as packed in the water soluble pouch),14 D AHS ([3]; Packed in Water Soluble Pouch),14 D AHS ([3]; Without Packing),AMB ([3]; Packed in Water Soluble Pouch),AMB ([3]; Without Packing),"Degradation observed ([4]; 7 days AHS, active in composition comprising EO/PO block copolymer end-capped with methyl group (Example-4))","Degradation observed ([4]; 7 days AHS, active in composition prepared without using end-capped EO/PO block copolymer (Example-7))","Degradation observed ([4]; 14 days AHS, active in composition comprising EO/PO block copolymer end-capped with methyl group (Example-4))","Degradation observed ([4]; 14 days AHS, active in composition prepared without using end-capped EO/PO block copolymer (Example-7))"
"COP(=O)(NC(C)=O)SC (centres unmarked) [Acephate, N-(Methoxy-methylsulfanylphosphoryl) acetamide]",0.64%,1.5%,1.02%,1.92%,3.50,2.31%,very stable,85.03,88.11,1.29%,0.75%,stable,87.13,87.81,88.59,88.59,–,–,–,–
N#C/N=C1\SCCN1Cc1ccc(Cl)nc1 [Thiacloprid],–,–,–,–,–,–,–,–,–,–,–,–,–,–,–,–,0.58%,5.1%,0.93%,7.91%
